According to PMC6437697 (Journal of Medicinal Chemistry, 2019):

What was measured:
Test in all cases: KINOMEscan
Format in all cases: binding
Settings in all cases: read-out: % control activity remaining
[1] = molecular target: T1, ABL1(T315I)-nonphosphorylated (Homo sapiens, UniProt P00519, T315I)
T1 construct: purchased Eurofins DiscoverX KINOMEscan

ABL1-nonphosphorylated = molecular target: T2, ABL1-nonphosphorylated (Homo sapiens, UniProt P00519)
T2 construct: purchased Eurofins DiscoverX KINOMEscan

AKT1 = molecular target: T3, AKT1 (Homo sapiens, UniProt P31749)
T3 construct: purchased Eurofins DiscoverX KINOMEscan

BLK = molecular target: T4, BLK (Homo sapiens, UniProt P51451)
T4 construct: purchased Eurofins DiscoverX KINOMEscan

BMPR1B = molecular target: T5, BMPR1B (Homo sapiens, UniProt O00238)
T5 construct: purchased Eurofins DiscoverX KINOMEscan

BUB1 = molecular target: T6, BUB1 (Homo sapiens, UniProt O43683)
T6 construct: purchased Eurofins DiscoverX KINOMEscan

CDK4-cyclinD1 = molecular target: T7, CDK4-cyclinD1 (Homo sapiens, UniProt P11802)
T7 construct: purchased Eurofins DiscoverX KINOMEscan

CDK4-cyclinD3 = molecular target: T8, CDK4-cyclinD3 (Homo sapiens, UniProt P11802)
T8 construct: purchased Eurofins DiscoverX KINOMEscan

CDKL1 = molecular target: T9, CDKL1 (Homo sapiens, UniProt Q00532)
T9 construct: purchased Eurofins DiscoverX KINOMEscan

CSNK1E = molecular target: T10, CSNK1E (Homo sapiens, UniProt P49674)
T10 construct: purchased Eurofins DiscoverX KINOMEscan
T10 sequence (P49674 whole entry): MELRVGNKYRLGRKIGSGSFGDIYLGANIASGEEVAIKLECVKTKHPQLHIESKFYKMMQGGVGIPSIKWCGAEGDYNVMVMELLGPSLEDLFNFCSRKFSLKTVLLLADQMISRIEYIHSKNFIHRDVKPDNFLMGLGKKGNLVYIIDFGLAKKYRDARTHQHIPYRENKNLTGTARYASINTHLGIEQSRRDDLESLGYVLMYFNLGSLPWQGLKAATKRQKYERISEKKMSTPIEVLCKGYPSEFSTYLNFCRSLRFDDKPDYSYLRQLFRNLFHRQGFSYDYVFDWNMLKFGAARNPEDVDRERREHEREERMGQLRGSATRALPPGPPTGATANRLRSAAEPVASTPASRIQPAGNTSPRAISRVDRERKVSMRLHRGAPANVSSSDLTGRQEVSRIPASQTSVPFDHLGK

CSNK1G2 = molecular target: T11, CSNK1G2 (Homo sapiens, UniProt P78368)
T11 construct: purchased Eurofins DiscoverX KINOMEscan

DAPK2 = molecular target: T12, DAPK2 (Homo sapiens, UniProt Q9UIK4)
T12 construct: purchased Eurofins DiscoverX KINOMEscan
T12 sequence (Q9UIK4 whole entry): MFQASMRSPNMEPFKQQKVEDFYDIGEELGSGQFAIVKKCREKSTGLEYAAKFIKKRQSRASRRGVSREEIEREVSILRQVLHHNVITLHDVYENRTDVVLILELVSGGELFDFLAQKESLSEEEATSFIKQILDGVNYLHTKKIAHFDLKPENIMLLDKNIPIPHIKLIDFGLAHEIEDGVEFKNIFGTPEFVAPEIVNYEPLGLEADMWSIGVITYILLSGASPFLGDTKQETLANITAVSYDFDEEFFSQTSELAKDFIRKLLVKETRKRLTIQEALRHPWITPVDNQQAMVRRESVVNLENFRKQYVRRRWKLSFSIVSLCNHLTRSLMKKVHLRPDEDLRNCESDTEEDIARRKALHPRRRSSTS

EGFR(T790M) = molecular target: T13, EGFR(T790M) (Homo sapiens, UniProt P00533, T790M)
T13 construct: purchased Eurofins DiscoverX KINOMEscan
T13 sequence (P00533 25-1210 T790M limits assumed): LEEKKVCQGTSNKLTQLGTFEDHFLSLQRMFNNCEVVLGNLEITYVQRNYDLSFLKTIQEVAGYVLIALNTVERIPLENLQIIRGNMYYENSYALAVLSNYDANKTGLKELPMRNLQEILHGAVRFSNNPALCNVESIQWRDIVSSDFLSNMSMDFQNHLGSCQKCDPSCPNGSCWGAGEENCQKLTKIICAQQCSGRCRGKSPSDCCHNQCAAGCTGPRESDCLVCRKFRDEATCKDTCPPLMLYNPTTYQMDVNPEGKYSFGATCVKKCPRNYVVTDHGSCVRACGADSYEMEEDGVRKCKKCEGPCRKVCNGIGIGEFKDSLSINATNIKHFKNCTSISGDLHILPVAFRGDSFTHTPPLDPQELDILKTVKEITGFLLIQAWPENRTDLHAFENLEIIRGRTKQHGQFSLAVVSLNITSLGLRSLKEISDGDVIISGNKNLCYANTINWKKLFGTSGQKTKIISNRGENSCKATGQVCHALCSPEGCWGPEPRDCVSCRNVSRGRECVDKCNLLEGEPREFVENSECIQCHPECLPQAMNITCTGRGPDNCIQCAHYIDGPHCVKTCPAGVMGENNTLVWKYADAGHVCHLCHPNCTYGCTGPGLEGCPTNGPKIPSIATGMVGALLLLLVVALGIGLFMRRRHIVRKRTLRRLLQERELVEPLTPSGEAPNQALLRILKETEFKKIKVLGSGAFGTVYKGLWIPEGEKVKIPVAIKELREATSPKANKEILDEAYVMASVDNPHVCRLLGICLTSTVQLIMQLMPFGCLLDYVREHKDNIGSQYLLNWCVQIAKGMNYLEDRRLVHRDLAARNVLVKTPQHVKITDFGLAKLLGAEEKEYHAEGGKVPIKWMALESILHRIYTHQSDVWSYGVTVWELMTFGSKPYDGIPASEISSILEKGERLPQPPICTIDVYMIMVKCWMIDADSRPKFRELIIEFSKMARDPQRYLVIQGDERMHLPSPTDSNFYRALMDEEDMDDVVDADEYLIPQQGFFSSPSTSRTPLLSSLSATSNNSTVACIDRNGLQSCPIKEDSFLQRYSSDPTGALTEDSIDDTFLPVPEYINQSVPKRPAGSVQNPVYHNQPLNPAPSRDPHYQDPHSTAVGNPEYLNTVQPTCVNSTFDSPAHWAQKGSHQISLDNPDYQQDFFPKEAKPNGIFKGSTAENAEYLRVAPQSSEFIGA

ERK1 = molecular target: T14, ERK1 (Homo sapiens, UniProt P27361)
T14 construct: purchased Eurofins DiscoverX KINOMEscan
T14 sequence (P27361 whole entry): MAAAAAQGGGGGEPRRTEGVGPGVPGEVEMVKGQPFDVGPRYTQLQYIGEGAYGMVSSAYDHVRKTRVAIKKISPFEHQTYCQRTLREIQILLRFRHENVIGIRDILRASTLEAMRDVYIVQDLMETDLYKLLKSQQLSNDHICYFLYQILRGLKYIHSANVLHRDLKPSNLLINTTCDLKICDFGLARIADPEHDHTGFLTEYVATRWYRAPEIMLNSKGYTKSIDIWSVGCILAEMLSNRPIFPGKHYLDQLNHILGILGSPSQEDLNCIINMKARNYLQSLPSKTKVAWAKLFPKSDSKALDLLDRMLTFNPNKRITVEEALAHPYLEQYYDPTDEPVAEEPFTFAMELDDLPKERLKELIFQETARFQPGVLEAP

LCK = molecular target: T15, LCK (Homo sapiens, UniProt P06239)
T15 construct: purchased Eurofins DiscoverX KINOMEscan

MAP3K1 = molecular target: T16, MAP3K1 (Homo sapiens, UniProt Q13233)
T16 construct: purchased Eurofins DiscoverX KINOMEscan

MTOR = molecular target: T17, MTOR (Homo sapiens, UniProt P42345)
T17 construct: purchased Eurofins DiscoverX KINOMEscan

MYLK = molecular target: T18, MYLK (Homo sapiens, UniProt Q15746)
T18 construct: purchased Eurofins DiscoverX KINOMEscan

NEK3 = molecular target: T19, NEK3 (Homo sapiens, UniProt P51956)
T19 construct: purchased Eurofins DiscoverX KINOMEscan
T19 sequence (P51956 1-506): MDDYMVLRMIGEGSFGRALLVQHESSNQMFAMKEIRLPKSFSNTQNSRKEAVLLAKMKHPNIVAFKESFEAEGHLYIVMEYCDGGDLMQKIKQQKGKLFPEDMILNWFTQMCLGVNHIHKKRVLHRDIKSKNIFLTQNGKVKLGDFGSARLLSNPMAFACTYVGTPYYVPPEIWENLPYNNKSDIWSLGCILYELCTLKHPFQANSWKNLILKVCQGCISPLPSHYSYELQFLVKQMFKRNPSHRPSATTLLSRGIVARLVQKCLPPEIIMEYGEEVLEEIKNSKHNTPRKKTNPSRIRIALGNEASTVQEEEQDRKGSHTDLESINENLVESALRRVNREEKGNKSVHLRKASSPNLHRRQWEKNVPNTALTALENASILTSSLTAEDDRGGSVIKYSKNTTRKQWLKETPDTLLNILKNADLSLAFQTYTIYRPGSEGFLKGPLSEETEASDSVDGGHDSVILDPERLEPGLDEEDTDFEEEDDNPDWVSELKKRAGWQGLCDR

NIM1 = molecular target: T20, NIM1 (Homo sapiens, UniProt Q8IY84)
T20 construct: purchased Eurofins DiscoverX KINOMEscan

PIK3CA(I800L) = molecular target: T21, PIK3CA(I800L) (Homo sapiens, UniProt P42336, I800L)
T21 construct: purchased Eurofins DiscoverX KINOMEscan

PRKCD = molecular target: T22, PRKCD (Homo sapiens, UniProt Q05655)
T22 construct: purchased Eurofins DiscoverX KINOMEscan

PRKCE = molecular target: T23, PRKCE (Homo sapiens, UniProt Q02156)
T23 construct: purchased Eurofins DiscoverX KINOMEscan
T23 sequence (Q02156 1-737): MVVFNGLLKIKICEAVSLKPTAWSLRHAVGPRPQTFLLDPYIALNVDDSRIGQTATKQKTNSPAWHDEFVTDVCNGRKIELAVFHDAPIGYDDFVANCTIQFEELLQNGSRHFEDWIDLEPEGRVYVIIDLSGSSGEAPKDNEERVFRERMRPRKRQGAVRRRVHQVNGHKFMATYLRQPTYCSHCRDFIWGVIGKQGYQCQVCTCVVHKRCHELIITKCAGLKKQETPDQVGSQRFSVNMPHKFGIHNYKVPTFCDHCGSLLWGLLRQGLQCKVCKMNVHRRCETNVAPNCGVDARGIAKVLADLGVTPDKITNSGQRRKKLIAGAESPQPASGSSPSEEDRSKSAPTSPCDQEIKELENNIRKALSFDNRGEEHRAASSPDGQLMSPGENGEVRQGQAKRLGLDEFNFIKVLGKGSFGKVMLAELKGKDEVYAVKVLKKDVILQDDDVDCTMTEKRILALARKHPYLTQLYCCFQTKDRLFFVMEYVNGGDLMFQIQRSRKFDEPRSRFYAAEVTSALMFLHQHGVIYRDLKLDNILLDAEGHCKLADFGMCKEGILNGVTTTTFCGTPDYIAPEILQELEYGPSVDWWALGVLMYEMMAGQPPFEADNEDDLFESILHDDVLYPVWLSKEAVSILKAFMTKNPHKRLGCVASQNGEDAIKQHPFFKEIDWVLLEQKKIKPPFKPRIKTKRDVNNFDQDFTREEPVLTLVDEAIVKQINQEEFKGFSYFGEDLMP

[2] = molecular target: T24, RSK4(Kin.Dom.1-N-terminal) (Homo sapiens, UniProt Q9UK32)
T24 construct: RSK4(Kin.Dom.1-N-terminal); purchased Eurofins DiscoverX KINOMEscan
T24 sequence (Q9UK32 73-330 limits assumed): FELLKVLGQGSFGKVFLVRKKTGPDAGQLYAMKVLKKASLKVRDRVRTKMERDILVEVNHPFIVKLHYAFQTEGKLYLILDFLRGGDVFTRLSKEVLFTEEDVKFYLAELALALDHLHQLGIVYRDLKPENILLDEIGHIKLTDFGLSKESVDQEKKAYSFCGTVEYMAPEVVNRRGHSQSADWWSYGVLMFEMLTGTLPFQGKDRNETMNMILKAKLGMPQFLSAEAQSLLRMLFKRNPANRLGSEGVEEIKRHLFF

SIK2 = molecular target: T25, SIK2 (Homo sapiens, UniProt Q9H0K1)
T25 construct: purchased Eurofins DiscoverX KINOMEscan
T25 sequence (Q9H0K1 whole entry): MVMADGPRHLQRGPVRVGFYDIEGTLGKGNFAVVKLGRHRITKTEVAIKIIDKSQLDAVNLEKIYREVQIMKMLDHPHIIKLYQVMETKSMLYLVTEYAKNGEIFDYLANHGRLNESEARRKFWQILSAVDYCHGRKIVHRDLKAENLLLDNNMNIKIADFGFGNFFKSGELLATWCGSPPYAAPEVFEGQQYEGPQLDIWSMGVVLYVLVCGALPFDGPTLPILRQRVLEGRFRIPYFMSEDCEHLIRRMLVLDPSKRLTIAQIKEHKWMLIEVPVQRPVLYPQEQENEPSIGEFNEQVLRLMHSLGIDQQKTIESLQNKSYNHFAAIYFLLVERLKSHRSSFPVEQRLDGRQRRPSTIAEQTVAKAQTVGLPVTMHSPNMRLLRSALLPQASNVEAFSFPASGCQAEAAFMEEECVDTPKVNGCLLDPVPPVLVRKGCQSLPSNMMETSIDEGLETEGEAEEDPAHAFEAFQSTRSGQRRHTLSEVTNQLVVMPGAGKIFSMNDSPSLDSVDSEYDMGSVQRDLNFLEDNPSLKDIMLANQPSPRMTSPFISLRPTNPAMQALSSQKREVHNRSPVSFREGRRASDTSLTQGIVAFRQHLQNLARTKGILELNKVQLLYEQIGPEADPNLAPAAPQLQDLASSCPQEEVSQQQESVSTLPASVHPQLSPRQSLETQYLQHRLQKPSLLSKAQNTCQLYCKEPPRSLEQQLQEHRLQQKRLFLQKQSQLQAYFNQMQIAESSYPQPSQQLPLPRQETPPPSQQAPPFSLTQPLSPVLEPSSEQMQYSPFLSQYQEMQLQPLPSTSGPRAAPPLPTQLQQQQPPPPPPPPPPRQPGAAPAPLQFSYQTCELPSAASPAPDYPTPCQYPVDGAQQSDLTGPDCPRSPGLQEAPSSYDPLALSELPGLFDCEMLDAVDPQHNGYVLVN

TESK1 = molecular target: T26, TESK1 (Homo sapiens, UniProt Q15569)
T26 construct: purchased Eurofins DiscoverX KINOMEscan
T26 sequence (Q15569 whole entry): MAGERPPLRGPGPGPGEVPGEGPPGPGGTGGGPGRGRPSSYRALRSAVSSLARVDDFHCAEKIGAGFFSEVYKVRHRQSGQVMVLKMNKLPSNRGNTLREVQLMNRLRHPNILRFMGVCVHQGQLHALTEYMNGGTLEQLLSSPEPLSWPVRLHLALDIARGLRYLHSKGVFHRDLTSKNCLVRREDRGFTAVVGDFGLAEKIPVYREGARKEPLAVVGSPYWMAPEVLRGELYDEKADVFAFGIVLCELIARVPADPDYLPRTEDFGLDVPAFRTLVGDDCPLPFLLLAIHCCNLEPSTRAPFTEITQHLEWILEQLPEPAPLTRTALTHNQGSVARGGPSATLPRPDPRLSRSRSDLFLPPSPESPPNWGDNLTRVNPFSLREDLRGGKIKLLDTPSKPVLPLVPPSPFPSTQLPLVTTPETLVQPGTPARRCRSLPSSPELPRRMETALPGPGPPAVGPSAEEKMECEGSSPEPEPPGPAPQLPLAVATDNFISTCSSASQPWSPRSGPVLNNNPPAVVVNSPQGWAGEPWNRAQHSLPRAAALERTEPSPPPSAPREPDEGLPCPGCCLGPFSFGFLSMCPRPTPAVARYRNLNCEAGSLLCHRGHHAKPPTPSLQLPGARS

TRKB = molecular target: T27, TRKB (Homo sapiens, UniProt Q16620)
T27 construct: purchased Eurofins DiscoverX KINOMEscan
T27 sequence (Q16620 32-822): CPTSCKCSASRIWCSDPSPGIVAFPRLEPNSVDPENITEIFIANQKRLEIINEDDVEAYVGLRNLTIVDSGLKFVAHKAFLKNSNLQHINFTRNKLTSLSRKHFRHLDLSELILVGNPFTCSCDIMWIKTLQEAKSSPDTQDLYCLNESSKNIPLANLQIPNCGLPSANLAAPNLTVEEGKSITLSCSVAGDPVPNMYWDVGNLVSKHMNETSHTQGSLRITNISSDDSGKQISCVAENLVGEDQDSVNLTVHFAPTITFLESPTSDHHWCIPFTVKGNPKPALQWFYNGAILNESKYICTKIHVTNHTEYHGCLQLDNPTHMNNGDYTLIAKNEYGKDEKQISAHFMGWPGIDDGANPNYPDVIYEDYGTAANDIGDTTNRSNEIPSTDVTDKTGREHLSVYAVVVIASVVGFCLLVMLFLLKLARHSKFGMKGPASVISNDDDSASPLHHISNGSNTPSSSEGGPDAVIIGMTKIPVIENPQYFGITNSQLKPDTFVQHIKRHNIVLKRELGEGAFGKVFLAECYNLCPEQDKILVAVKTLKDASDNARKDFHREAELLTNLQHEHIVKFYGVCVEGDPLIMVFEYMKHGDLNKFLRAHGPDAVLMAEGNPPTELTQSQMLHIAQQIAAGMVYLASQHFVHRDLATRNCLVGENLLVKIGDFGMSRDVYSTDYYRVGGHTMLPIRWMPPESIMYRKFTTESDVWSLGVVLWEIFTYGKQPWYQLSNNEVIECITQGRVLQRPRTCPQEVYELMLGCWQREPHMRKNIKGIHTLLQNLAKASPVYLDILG

| Compound | remaining binding at 1 µM [1] | remaining binding at 1 µM (ABL1-nonphosphorylated) | remaining binding at 1 µM (AKT1) | remaining binding at 1 µM (BLK) | remaining binding at 1 µM (BMPR1B) | remaining binding at 1 µM (BUB1) | remaining binding at 1 µM (CDK4-cyclinD1) | remaining binding at 1 µM (CDK4-cyclinD3) | remaining binding at 1 µM (CDKL1) | remaining binding at 1 µM (CSNK1E) | remaining binding at 1 µM (CSNK1G2) | remaining binding at 1 µM (DAPK2) | remaining binding at 1 µM (EGFR(T790M)) | remaining binding at 1 µM (ERK1) | remaining binding at 1 µM (LCK) | remaining binding at 1 µM (MAP3K1) | remaining binding at 1 µM (MTOR) | remaining binding at 1 µM (MYLK) | remaining binding at 1 µM (NEK3) | remaining binding at 1 µM (NIM1) | also measured |
| --- | --- | --- | --- | --- | --- | --- | --- | --- | --- | --- | --- | --- | --- | --- | --- | --- | --- | --- | --- | --- | --- |
| Clc1cc(NCC2CC2)c2ncc(-c3ccc4[nH]ncc4c3)n2n1 [compound 2, 6-Chloro-N-(cyclopropylmethyl)-3-(1H-indazol-5-yl)imidazo[1,2-b]pyridazin-8-amine] | 76% | 76% | 98% | 53% | 100% | 83% | 88% | 78% | 74% | 71% | 100% | 91% | 92% | 95% | 100% | 99% | 98% | 79% | 93% | 97% | remaining binding at 1 µM (PIK3CA(I800L)): 83%; remaining binding at 1 µM (PRKCD): 93%; remaining binding at 1 µM (PRKCE): 100%; remaining binding at 1 µM [2]: 27%; remaining binding at 1 µM (SIK2): 73%; remaining binding at 1 µM (TESK1): 92%; remaining binding at 1 µM (TRKB): 89% |
| O=C(CN1CCOCC1)N[C@H]1CC[C@H](Nc2cc(Cl)nn3c(-c4ccc5[nH]ncc5c4)cnc23)CC1 [compound 26] | 38% | 44% | 100% | 95% | 100% | 58% | 93% | 100% | 90% | 44% | 95% | 69% | 100% | 100% | 87% | 92% | 100% | 42% | 88% | 91% | remaining binding at 1 µM (PIK3CA(I800L)): 88%; remaining binding at 1 µM (PRKCD): 90%; remaining binding at 1 µM (PRKCE): 96%; remaining binding at 1 µM [2]: 13%; remaining binding at 1 µM (SIK2): 97%; remaining binding at 1 µM (TESK1): 91%; remaining binding at 1 µM (TRKB): 69% |
| CN1CCC(CNc2cc(Cl)nn3c(-c4cc5nc(Nc6ccccc6)[nH]c5cc4F)cnc23)CC1 [compound 31, 6-Chloro-3-(6-fluoro-2-(phenylamino)-1H-benzo[d]imidazol-5-yl)-N-((1-methylpiperidin-4-yl)methyl)imidazo[1,2-b]pyridazin-8-amine] | 71% | 58% | 100% | 79% | 67% | 59% | 87% | 97% | 67% | 100% | 96% | 98% | 100% | 92% | 82% | 89% | 89% | 81% | 100% | 77% | remaining binding at 1 µM (PIK3CA(I800L)): 58%; remaining binding at 1 µM (PRKCD): 62%; remaining binding at 1 µM (PRKCE): 86%; remaining binding at 1 µM [2]: 97%; remaining binding at 1 µM (SIK2): 100%; remaining binding at 1 µM (TESK1): 100%; remaining binding at 1 µM (TRKB): 91% |
